Tested on: isolated adult rat ventricular myocytes
Assay: Counteraction of mavacamten effects by isoproterenol in isolated myocytes in vitro
Assay type: cell-based
Source text: Additional supportive measures, e.g., intravenous volume supplementation and/or the use of arterial vasoconstrictor agents (a adrenergic agonists) may complement the use of a β adrenergic agonist.

`CC(C)n1c(=O)cc(N[C@@H](C)c2ccccc2)[nH]c1=O` [mavacamten, (S)-3-Isopropyl-6-((1-phenylethyl)amino)pyrimidine-2, 4(1H,3H)-dione] was tested, and the “Reversal of pharmacologic effects by β adrenergic agonist” value was “can be counteracted by β adrenergic agonists”.

Source: US20260207600A1, “METHODS OF TREATMENT WITH MYOSIN MODULATOR” (MYOKARDIA, INC., priority 2019, published 2026)
